Measured values taken from patent US20230134760A1, “CAR AND NRF2 DUAL ACTIVATOR AGENTS FOR CYCLOPHOSPHAMIDE-BASED AND DOXORUBICIN-BASED TREATMENTS OF CANCER” (priority 2020, published 2023).

Legend:
hCAR [1] = experiment: hCAR luciferase reporter assay in HepG2 cells (hCAR1+A, CYP2B6-2.2k reporter); format: cell-based, human
Experimental: HepG2 cells were cultured in 24-well plates (1×10^5 cells/well) and transfected with either a hCAR1+A expression vector (30 ng/well), a CYP2B6-2.2k reporter (60 ng/well) reporter, and pRL-TK (10 ng/well) or a ARE expression vector using X-tremeGENE 9 DNA Transfection Reagent (Sigma-Aldrich). After an overnight transfection, cells were treated with a vehicle control (0.1% DMSO), RIF (10 μM), DL7076 (1 μM, 5 μM, and 10 μM) for 24 hours. Cell lysates were assayed for luciferase activity and normalized against the activity of the Renilla luciferase using a Dual-Luciferase Kit (Promega).

hCAR [2] = experiment: Ad/EYFP-hCAR translocation assay in HPH; format: cell-based, human; conditions: Ad-EYFP-hCAR-infected HPH; DL7076 10 μM, PB 1 mM
Experimental: HPH were seeded on collagen-coated 12-well plates. 24 hours after seeding, HPH were infected with Ad/EYFP-hCAR at a concentration of 5 μL/mL of media and incubated overnight. HPH infected cells were treated with a vehicle control (DMSO 0.01%), a positive control (1 mM PB), and compounds of interest for 8 h. Fluorescence was viewed using the YFP channel (Nikon Eclipse Ti) and quantified by identifying the number of total cells expressing EYFP-hCAR over EYFP-hCAR present in the nucleus. Representative images are shown, and quantitative data represents the mean±SD of 3 individual images for each treatment group.

MDA-MB-231 cells = experiment: Cell viability assay, DOX-induced toxicity in MDA-MB-231 cells; format: cell-based; conditions: MDA-MB-231, DOX 2.5 μM
Experimental: Immortalized triple negative breast cancer cell lines MDA-MB-231 and BT549 were obtained from ATCC (Rockville, Md.). Additionally, the h9c2 cell line was purchased from ATCC (Rockville, Md.). […] Human iPSC-derived cardiomyocytes were maintained in Mtesr plus and supplemented according to protocol. These cells were treated for 2 hrs or an overnight as indicated. Following a 2 hr pretreatment, cells were co-treated with DOX at indicated concentrations for 6 or 22 hours. Following the overnight treatments, RNA or protein was isolated. HPH were seeded in collagen-coated 24 well plates and pretreated for 24 hrs. BT549 were seeded on inverted coverslips. After a 24 hr pretreatment, hepatocytes were co-administered as indicated and coverslips were inserted. The cell lines were used for less than 60 passages. H9c2 cells were seeded 0.8×10^5 in 24-well plates. […] A Cell Counting Kit-8 (Enzo) assay was carried out. Cell viability was described as a percent of vehicle control (0.1% DMSO).

cleaved caspase-3 = experiment: Cleaved caspase-3 Western blot in H9c2 cardiomyocytes; format: cell-based, rat
Excerpt: Protein was harvested using cell lysis buffer (Cell Signaling Technology, Danvers, Mass.) with a complete protease inhibitor cocktail (Roche, Mannheim, Germany) prior to homogenizing via sonification. Homogenized protein from treated HPH, H9c2, BT549, and MDA-MB-231 cells were resolved on NuPage Novex Bis-Tris 4-12% gels (Life Technologies) or NuPage Novex Bis-Tris 12% gel and transferred through electrophoresis onto immobilon-P polyvinylidene difluoride (PVDF) membranes. Membranes were blocked with 5% BSA or 5% milk in Tris-Buffer saline with Tween 20 (TBST). Further, membranes were incubated with specific antibodies against human CYP2B6 (1:1000, Abcam), CYP3A4 (1:1000, Millipore Sigma), HO-1 (1:1000, Abcam), cleaved caspase-3 (1:1000 Cell Signaling Technologies), Nrf2 (1:1000, Abcam), TATA-Binding Protein (1:500, Santa Cruz) β-actin (1:3000, Millipore Sigma) at 4° C. overnight. Following overnight incubation, horseradish peroxidase goat anti-mouse or anti-rabbit IgG antibodies were used for secondary incubation. Membranes were developed using SuperSignal West Pico Chemiluminescent Substrate (Thermo Scientific) or Radiance Q (Azure). Two TNBC cell lines, cardiomyocytes, and HPH protein samples were isolated and resolved on a 4-12% or 12% SDS PAGE gel followed by electrophoretic transfer to a PVDF membrane. Membranes were probed 1:1000 for CYP2B6, CYP3A4, Nrf2, cleaved caspase 3, and HO-1 using β-actin (1:3000) or TBP (1:500) as a loading control.

BT549 cells = experiment: Phosphorylated H2AX imaging, BT549 cells from multi-organ co-culture; format: cell-based; conditions: CPA/DOX + DL7076
Experimental: Additionally, HPH were cultured in collagen-coated 6-well plates and pre-treated as described in the previous co-culture system. BT549 and H9c2 cells were plated on similar modified coverslips 0.8×10^5 cells and allowed to attach for 24 hours during hepatocyte pre-treatment. […] Following pre-treatment, BT549 coverslips were inserted adjacent to H9c2 coverslips over the sandwich cultured HPH as depicted in FIG. 43a. […] Both BT549 and H9c2 cells were harvested at indicated time points and assess for viability, apoptosis, and DNA damage as detailed further. H9c2 rat cardiomyocytes seeded at 0.8×10^5 in 24-well plates. […] Cells were washed 3× with PBS. […] The oxidation of DFDA to the fluorescent dichlorofluorescein was viewed using fluorescence microscopy (Nikon Eclipse Ti) with a FITC filter at […] and quantified using Brightspot detection for fluorescent detection of triplicate images and normalized to the vehicle control (0.1% DMSO). […] Phosphorylation was calculated through fluorescence intensity all normalized to the vehicle control. […] The coverslips were visualized at 10× magnification using fluorescence microscopy (Nikon Eclipse Ti) and the amount of phosphorylation was quantified as mean intensity using brightspot detection of quadruplet images of the whole well and normalized to the vehicle control (0.1% DMSO).

O=C(NCCN=C=S)c1c(-c2ccc3ccccc3c2)nc2sccn12 [DL7076, N-(2-Isothiocyanatoethyl)-6-(naphthalen-2-yl)imidazo[2,1-b]thiazole-5-carboxamide]
CAR1+A activation, luciferase reporter (hCAR [1]; HepG2, 10 μM, 24 hours, vs CITCO 1 μM): activate CAR1+A in a comparable manner to the prototypical CAR activator, CITCO
hCAR luciferase activity (efficacy among compound hybrids) (hCAR [1]; HepG2, screening, FIG. 37a): highest efficacy
EYFP-hCAR nuclear translocation (hCAR [2]): triggered hCAR nuclear translocation
reversal of DOX-induced toxicity (viability) (MDA-MB-231 cells): this efficient reversal was not shown
cleaved caspase-3 expression with pretreatment (cleaved caspase-3; H9c2, DL7076 pretreatment + DOX 2.5 μM): notably reduced in a concentration dependent manner
cleaved caspase-3 expression, compound alone (cleaved caspase-3; H9c2, without DOX): no expression in cleaved caspase-3
H2AX phosphorylation (DNA damage) (BT549 cells): effectively enhanced the CPA/DOX-mediated DNA damage
